Source: the OPERA property sets (Mansouri et al. 2018)

| Structure (SMILES) | logP |
| --- | --- |
| O=C(O)COc1ccc(C2CCCC2)cc1 | 3.41 |
| Nc1ccccc1OC1OC(CO)C(O)C(O)C1O (stereo unspecified) | -1.23 |
| CC1=Nc2c(Br)cc(Cl)cc2S(=O)(=O)N1 | 1.65 |
| NC(=O)/C=C/c1ccc2c(c1)OCO2 | 1.4 |
| Clc1ccccc1NC1=NCCN1 | 1.36 |
| O=C1NC(=S)SC1=Cc1ccc([N+](=O)[O-])o1 | 0.74 |
| S=C=NC(c1ccccc1)c1cccc2ccccc12 (stereo unspecified) | 6.44 |
| O=C(COc1ccc(Cl)cc1)NNCc1ccccc1 | 2.92 |
| COc1cc(C)nn1-c1ccncn1 | 0.5 |
| O=NN(CCCl)C(=O)NC1CCS(=O)(=O)CC1 | 0.19 |
| COc1cc(Cc2cnc(N)nc2N)cc(O)c1O | -0.31 |
| CCCCCCCCCCCCCCCC[n+]1ccc(C)cc1C.[I-] | 3.9 |
| COc1cc(Cc2cnc(N)nc2N)ccc1C | 2.14 |
| CC(C)(C)NC(=O)NN | -0.81 |
| CCN(CC)c1nc(N(C)C)nc(N(C)C)n1 | 3.45 |
| CNC(=O)NCCSCc1[nH]cnc1C | -0.06 |
| O=C1CCC(=O)N1c1ccccc1Br | 0.65 |
| CCCCCCCCCC[n+]1ccccc1.[Br-] | -0.72 |
| CCCCC1OC(=O)c2cc(Cl)ccc21 (stereo unspecified) | 3.53 |
| CCCC(=O)Nc1ccc(C)cc1O | 2.26 |
| CCN(CC)CCNC(=O)c1cc(S(C)(=O)=O)ccc1OC | 0.9 |
| OCC1OC(Sc2ccccc2)C(O)C(O)C1O (stereo unspecified) | -0.56 |
| Nc1nc(N)nc(-c2ccc(Cl)cc2Cl)n1 | 2.07 |

| Structure (SMILES) | logP |
| --- | --- |
| C=CCOn1c(=O)[nH]c(C)c(Br)c1=O | 0.32 |
| CCC(CC)(C(N)=O)c1ccc2c(c1)OCO2 | 1.59 |
| O=C(CNC(=O)c1ccccc1)Oc1cccc(Cl)c1 | 3.21 |
| CN(C)N=Nc1ccc(S(N)(=O)=O)cc1 | 1.06 |
| C=CCS(=O)(=O)c1cc(OC)c(OC)c(OC)c1 | 1.34 |
| NC(=S)c1ncccn1 | -0.34 |
| CCC1(CC2COc3ccccc3O2)C(=O)NC(=O)NC1=O (stereo unspecified) | 1.85 |
| CCCCCOn1c(=O)[nH]c(C)c(Br)c1=O | 1.69 |
| CCCCCCCCCCCC[n+]1cc(C)cc(C)c1.[I-] | 1.91 |
| O=NN1CCC(c2ccccc2)CC1 | 2.59 |
| ClC1=C(Cl)C(Cl)C(Cl)C(Cl)C1Cl (stereo unspecified) | 4.31 |
| CCOCCn1ccnc1[N+](=O)[O-] | 0.53 |
| O=C1O[C@@H](O)c2ccccc21 | 0.57 |
| COC(=O)N(C)SN(C)C(=O)Oc1cccc2c1OC(C)(C)C2 | 3 |
| CSc1nnc(CCC(C)C)c(=O)n1N | 1.85 |
| NS(=O)(=O)NS(=O)(=O)Nc1ccccc1 | 0.02 |
| O=C(CN1CCCCC1)Nc1ccccc1Cl | 2.76 |
| CN1CCN(N=O)CC1 | 0.2 |
| COc1c(C)cc(Cc2cnc(N)nc2N)cc1C | 2.19 |
| Nc1ccccc1C(c1ccc(O)cc1)c1ccc(O)cc1 | 3.16 |
| COc1ccccc1C(=O)NCCCN | 0.2 |
| C#CC(C)(C)N(C)C(C)C | 2.29 |
| Clc1cccc(-c2ccccc2)c1Cl | 5.02 |

| Structure (SMILES) | logP |
| --- | --- |
| NC(=O)Nc1cnc2ccccc2n1 | 1.3 |
| CCOC(=O)CN(C(=O)CCl)c1ccccc1Cl | 2.3 |
| O=C1CCC(=O)N1c1ccc(F)cc1 | 0.29 |
| CCCCOc1cccc(N2C(N)=NC(N)=NC2(C)C)c1 | 2.03 |
| CC(=O)C(C#N)=NNc1ccc(Cl)cc1C | 4.28 |
| O=NN(CCCl)C(=O)NC1CSCSC1 | 2.08 |
| CN(C)C(=O)Nc1cccc(O)c1 | 0.51 |
| CCCCCCN(SN(C)C(=O)ON=C(C)SC)C(=O)N(C)C | 3.3 |
| CN(C)c1ccc(N(C)C)nn1 | 0.99 |
| O=C1OC(C2CCCCC2)c2ccccc21 (stereo unspecified) | 3.34 |
| CSc1nnc(C(C)C)c(=O)n1N | 1.01 |
| CON(C)C(=O)Nc1cccc(C(C)(C)C)c1 | 3.21 |
| CS(=O)(=O)CCn1ccnc1[N+](=O)[O-] | -1.3 |
| Nc1cnc2ccccc2n1 | 1.5 |
| CON=CCCc1ccccc1 | 2.14 |
| OCC(CO)(CO)CBr | -0.7 |
| CC1(C)SC2C(NC(=O)C(O)c3ccccc3)C(=O)N2C1C(=O)O (stereo unspecified) | 1.4 |
| CC(C)(C)C(=O)C(C#N)=NNc1cccc(Cl)c1 | 4.62 |
| CCCCCCc1nnc(SC)n(N)c1=O | 2.68 |
| CC(=O)OCCN1CCS/C1=N/c1ncc([N+](=O)[O-])s1 | 1.88 |
| COC1C(Cl)C(Cl)C(Cl)C(Cl)C1OC (stereo unspecified) | 2.82 |
| CC(=O)Nc1ccc(O)c(C)c1 | 0.79 |
| COc1cc(S(=O)(=O)CCC(C)C)cc(OC)c1OC | 2.12 |

| Structure (SMILES) | logP |
| --- | --- |
| COc1cccc(NC=O)c1 | 1.25 |
| CCc1ccccc1N1C(=O)CCC1=O | 0.64 |
| O=[N+]([O-])C=Cc1cc([N+](=O)[O-])ccc1Cl | 2.23 |
| OCCCCCn1nnc2ccccc21 | 1.51 |
| COc1ccccc1OC1OC(CO)C(O)C(O)C1O (stereo unspecified) | -1.04 |
| NNc1ncnc2ccccc12 | 1.67 |
| COc1ccccc1C(=O)NCCCCN | 0.58 |
| CC(=O)NNC(=O)c1ccccn1 | -0.57 |
| O=S(=O)(Nc1ccc(C(F)(F)F)cc1)C(F)(F)F | 4.47 |
| CC12CCC(=O)C=C1C1(CC1)CC1C2CCC2(C)C1CCC21CCC(=O)O1 (stereo unspecified) | 3.15 |
| CC(=O)Nc1n[nH]c(NC(C)=O)n1 | -1.02 |
| CNc1cc(Cc2cnc(N)nc2N)cc(N(C)C(C)=O)c1C | 0.53 |
| Nc1ncco1 | -0.18 |
| O=C(O)c1ccccc1Nc1cccc([N+](=O)[O-])c1 | 4.57 |
| Cc1nnc(-c2ccccn2)o1 | 0.46 |
| CC(C)Oc1cn[nH]c1 | 1.13 |
| CCOC(=O)c1ccc2cccccc1-2 | 3.83 |
| CCCCC(=O)NN | -0.11 |
| CC(=O)C(=Cc1ccc(F)cc1)C(C)=O | 1.65 |
| CCCC(=O)NC(=O)C1CCC1 | 0.41 |
| O=[N+]([O-])c1nccn1CCOc1ccccc1 | 1.89 |
| O=NN(CCF)C(=O)NC1CSCSC1 | 1.54 |
| CCCC1(CC)C(=O)NC(=O)N(C)C1=O (stereo unspecified) | 1.65 |

| Structure (SMILES) | logP |
| --- | --- |
| CCC1=Nc2cc(Cl)ccc2S(=O)(=O)N1 | 1.61 |
| CS(=O)(=O)c1cccs1 | 0.38 |
| COP(=O)(NC(C)(C)C)Oc1cc(Cl)c(Cl)cc1Cl (stereo unspecified) | 3.83 |
| O=S(=O)(Nc1cccc(O)c1)C(F)(F)F | 2.51 |
| O=[N+]([O-])c1cnc(N=C2OCCN2CCO)s1 | 0.43 |
| O=[N+]([O-])C=Cc1cccc(O)c1 | 2.07 |
| CN(C)/N=N/c1ccccc1C(=O)NC#N | 0.8 |
| COc1cc(Cc2cnc(N)nc2N)cc(OCc2ccccc2)c1OC | 2.37 |
| Cc1cnc2cccc(C)n2c1=O | 1.26 |
| O=NN1CCC(O)CC1 | -0.89 |
| COc1cc(Cc2cnc(N)nc2N)cc(Cl)c1OC | 1.92 |
| N#CCNc1ccccc1C(=O)O | 1.8 |
| O=C1CN=C(c2ccccc2F)c2cc(I)ccc2N1CC(O)CO (stereo unspecified) | 1.81 |
| CNC(=O)c1ccccc1/N=N/N(C)C | 1.83 |
| CN(C)C(=O)Nc1cccc(OCCc2ccccc2)c1 | 3.39 |
| CCOC(=O)C(=Cc1ccc2c(c1)OCO2)C(C)=O | 2.35 |
| Oc1ccc(C(c2ccc(O)cc2)c2nccs2)cc1 | 2.96 |
| COCC(O)Cn1cc([N+](=O)[O-])nc1C (stereo unspecified) | -0.36 |
| CCc1ccc(O[Si]23OCCN(CCO2)CCO3)cc1 | 0.56 |
| O=C(CNC(=O)c1ccccc1)Oc1cccc(C(F)(F)F)c1 | 3.3 |
| COc1cc(Cc2cnc(N)nc2N)c(Br)cc1Br | 3.17 |
| Cc1ccc2c([N+](=O)[O-])cc[n+]([O-])c2c1 | 1.42 |
| O=[N+]([O-])c1c(Cl)c[n+]([O-])c2ccccc12 | 1.33 |

| Structure (SMILES) | logP |
| --- | --- |
| O=C1CCC(=O)N1c1ccccc1C(F)(F)F | 0.76 |
| CSc1nc2nc(SC)[nH]c(Cl)c-2n1 | 0.63 |
| CC(C)c1nnc(N)o1 | 0.2 |
| CN(N=O)C(=O)Oc1cccc2ccccc12 | 2.85 |
| CC(N)Cc1ccc2c(c1)OCO2 (stereo unspecified) | 1.64 |
| COc1cc(-n2[nH]c(C)cc2=O)ncn1 | 0.99 |
| CC1(C)SC2C(NC(=O)C(NS(C)(=O)=O)c3ccccc3)C(=O)N2C1C(=O)O (stereo unspecified) | 0.95 |
| O=C1CN=C(c2ccccc2)c2ccccc2N1 | 2.18 |
| CCN1CCN=C1Nc1ncc([N+](=O)[O-])s1 | 2.28 |
| [Br-].c1ccc(C[n+]2cccc3ccccc32)cc1 | -0.82 |
| CC1NCCN1CCO (stereo unspecified) | -1.93 |
| C[N+](C)(C)Cc1ccccn1.[Br-] | -3.4 |
| CCCNC1CC2CC1c1ccccc12 (stereo unspecified) | 3.3 |
| CCCCCCC1OC(=O)c2ccccc21 (stereo unspecified) | 3.55 |
| CC(C)C(=O)N(C)SN(C)C(=O)Oc1cccc2c1OC(C)(C)C2 | 3.6 |
| COc1ccc(CN(C)N=Nc2ccc(C(=O)O)cc2)cc1 | 4.43 |
| CC1(C)CCCC(C)(C)N1N=O | 2.49 |
| CCCSc1nnc(C(C)C)c(=O)n1N | 2.12 |
| COc1cc(-n2nc(C)cc2OC)ncn1 | 1.53 |
| COc1ccccc1NCC#N | 1.3 |
| COc1cc(Cc2cnc(N)nc2N)cc(OC)c1-n1cccc1 | 1.78 |
| CCOc1c(OC)cc(Cc2cnc(N)nc2N)cc1OC | 1.34 |
| Cc1cnc2ccccn2c1=O | 0.77 |

| Structure (SMILES) | logP |
| --- | --- |
| FC(F)(F)CCc1ccccc1 | 3.31 |
| CCC(C)C(=O)NN (stereo unspecified) | -0.33 |
| CCOC(=O)C(C#N)=NNc1cc(Cl)c(Cl)cc1Cl | 5.21 |
| N#Cc1c(N)sc2ccccc12 | 2.17 |
| CN(C)CCc1cccs1 | 1.99 |
| CS(=O)(=O)N(c1ccccc1)S(C)(=O)=O | 0.62 |
| CN1C(=O)SC(=CC=Cc2ccc([N+](=O)[O-])o2)C1=O | 1.4 |
| NN=C1c2ccccc2C(=O)C1C(=O)C(c1ccccc1)c1ccccc1 (stereo unspecified) | 3.62 |
| CC(C)Sc1nnc(C(C)C)c(=O)n1N | 2.06 |
| O=C(c1ccccc1)c1ccc(N=C=S)cc1 | 4.88 |
| CC(C)CN(CC(C)C)C(=O)C=Cc1ccc2c(c1)OCO2 | 4.37 |
| Clc1ccc(Cl)c(-c2ccccc2)c1Cl | 5.67 |
| CN(C)/N=N/c1cc(C(N)=O)cc(C(N)=O)c1 | 0.22 |
| CCCCCCCCCCCC[n+]1ccccc1C.[I-] | 1.32 |
| C[N+](C)(C)Cc1cccnc1.[Br-] | -3.5 |
| O=[N+]([O-])c1ccc(/C=C/c2nnc[nH]2)o1 | 1.1 |
| CCN1C(=O)CN=C(c2ccccc2)c2cc(N)ccc21 | 1.81 |
| CN1C(=O)CN=C(c2c(Cl)cccc2Cl)c2cc(Cl)ccc21 | 3.04 |
